Laboratory results published in article PMC8910697, “Development of VPC-70619, a Small-Molecule N-Myc Inhibitor as a Potential Therapy for Neuroendocrine Prostate Cancer” (International Journal of Molecular Sciences, 2022).
“Also recorded” adds a separate entry of the source. Where two headings read alike, the source gives them in different places.

Key:
[1] = Microsomal stability assay; type: in vitro ADME, Mouse; conditions: mouse liver microsomes, 1 µM compound
Protocol: A microsomal stability assay was performed using the Corning Gentest NADPH Regenerating System (Corning, #451220/41200) (Corning, NY, USA). Mouse liver microsomes (MLM) (Xenotech, M1000) (Kansas City, KS, USA) and compounds were diluted to a final concentration of 0.15 mg/mL and 1 μM respectively. These were prepared into a 500 μL solution with 100 mM potassium phosphate buffer (pH = 7.4). Imipramine was used as a control. NADPH solutions A and B were mixed in a 5:1 ratio, and 24 μL of the NADPH was added to each of the MLM/compound samples at 30 s intervals. At time points 10, 20, and 45 min, 100 μL of reaction was added to the stopping solution. Samples were centrifuged at 18,000× g and incubated at 4 °C for 10 min. Samples were then loaded onto a LC-MS 96-well plate for analysis.

[2] = molecular target: T1, N-Myc-Max heterodimer (Homo sapiens, UniProt P04198+P61244); assay: Proximity ligation assay (PLA) in LNCaP-NMYC cells; type: cell-based; conditions: 10 µM, 72 h
T1 construct: expressed in transfected cells; host or cells: LNCaP-NMYC cells (gift from David Rickman)
Protocol: (§1) To confirm that 70619 could disrupt the binding of N-Myc-Max DBD to DNA, we performed a bio-layer interferometry (BLI) assay where we immobilized biotinylated E-box sequence on streptavidin sensors, and we evaluated recombinant N-Myc-Max binding to the DNA in the presence of increasing concentrations of VPC-70619. […] We observed a similar number of interactions when comparing the ratio of signal per nuclei in the presence or absence of the compound.
LNCaP-NMYC cells were seeded on coverslips at a density of 10^5 cells per well of a 6-well plate. After incubation for 24 h the cells were treated with 10 μM of either 10074-G5 or 70619 for 72 h. The coverslips were fixed with methanol:acetone (3:1) and incubated with primary antibodies n-Myc Antibody (NMYC-1) (Novus Biologicals NB200-109) (Littleton, CO, USA) and MAX Antibody (C-17) (Santa Cruz sc-197) (Dallas, TX, USA) overnight at 4 °C. PLA was conducted using the Duolink In Situ Detection Reagents Red kit (Sigma DUO92008) according to the manufacturer’s protocol. The coverslips were then mounted on slides with VECTASHIELD mounting media with DAPI, and images were taken on ZEISS 780 confocal microscope at 40× magnification.

[3] = test system: N-Myc-Max transcription activity (LNCaP-NMYC cells); assay: Myc transcription assay (Cignal Myc reporter, luciferase) in LNCaP-NMYC cells; type: cell-based; conditions: for IC50: Homo sapiens, LNCaP, Table 1, transcriptional assay in LNCaP cells overexpressing N-Myc, read-out: IC50
Method in brief: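 LNCaP-NMYC cells transfected with Cignal Myc luciferase reporter were treated 24 h with compounds at 5 µM or 10 µM. Read-out: inhibition of N-Myc-Max-driven reporter luminescence.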

[4] = test system: N-Myc-Max binding to DNA E-box; assay: Biolayer interferometry (BLI), N-Myc-Max binding to biotinylated E-box DNA; type: biochemical; conditions: BLI, 0, 50, 100, 200 µM
From the text: as §1
The bHLHLZ domain of N-Myc (amino acids 309–394) and Max (amino acids 12–93) protein sequences were cloned into pETDuet with an N-terminal 6×His. pETDuet-His-NMyc-Max was transformed and expressed in E. coli BL21 and induced with 0.5 mM isopropyl-β-D-thiogalactopyranoside (IPTG) at 16 °C overnight. The cultures were lysed by sonication and combined for purification by immobilized metal ion chromatography (IMAC) with nickel-nitrilotriacetic acid (Ni-NTA) resin. The bound proteins were eluted from the column with 20 mM Tris, pH = 8, 500 mM NaCl, 5% glycerol, 300 mM imidazole, 5 mM βMe, and 0.1 mM PMSF. Size exclusion chromatography with Superdex 75 was used to increase the purity of the N-Myc-Max protein sample. The purified protein complex was used in subsequent BLI and MST experiments.
Biotinylated-duplex DNA (Forward: 5′ Biotin-[…], Reverse: […]) was bound to the super-streptavidin (SSA) ForteBio Sensor in the assay buffer [20 mM Tris pH = 8, 150 mM NaCl, 5% glycerol, and 0.2 mM TCEP]. The protein solution was mixed with the serially diluted compound (70619) to a final concentration of 0.1 mg/mL of protein and 200 μM, 100 μM, and 50 μM for the compound. Sample containing N-Myc-Max protein alone was used as a control.

[5] = test system: N-Myc-Max transcription activity (LNCaP-NMYC cells); assay: Myc transcription assay (Cignal Myc reporter, luciferase) in LNCaP-NMYC cells; type: cell-based
[6] = Pharmacokinetics after IP and PO dosing; type: in vivo, male Balb/c mice; conditions: 10 mg/kg; for Tmax: 75:25 PG/PEG 400 formulation; for Cmax: 70551 in 75:25 PG/PEG 400, 70619 in 20:80 Kolliphor EL
Protocol: In order to characterize VPC-70619 as a drug candidate against N-myc, its pharmacokinetic (PK) characteristics were evaluated in Balb/c mice following intraperitoneal (IP) and peroral (PO) administrations. As presented in Figure 5, we determined the PK properties of VPC-70619 and compared it to the parental molecule, VPC-70551. […] The clearance of 70551 for PO delivery was extremely slow, and we could not determine the T1/2 in the experimental conditions used for this assay. […] Therefore, VPC-70619 was deemed to have appropriate efficacy in vivo, and a better pharmacokinetic profile due to higher bioavailability for both oral and intraperitoneal administration.
Bienta Enamine Biology Services (Kyiv, Ukraine) conducted PK studies according to the Enamine PK study protocols and Institutional Animal Care and Use Guidelines. The PK studies were reviewed and approved by the Bienta Animal Care and Use Committee (BACUC) under the project identification codes PK-VPC-112618 (approved 17 December 2018) and PK-VPC-101119 (approved 21 October 2019), for VPC-70551 and […], respectively. Evaluation of 70619 and 70551 was conducted in male Balb/c mice through intraperitoneal (IP) and peroral (PO) administration. Measurements were taken at six time points: 5, 15, 60, 120, 240, and 360 min for IP; 15, 30, 60, 120, 240, and 480 min for PO. Four mice were included in each treatment group for each time point; one mouse each for IP and PO was included as a control. Initial target administration for both IP and PO was 10 mg/kg dose level, 2 mg/mL dose concentration, and 5 mL/kg dose volume. Concentration of the compounds was evaluated in the plasma samples using an LC-MS/MS system.

T1 sequence (P04198 whole entry): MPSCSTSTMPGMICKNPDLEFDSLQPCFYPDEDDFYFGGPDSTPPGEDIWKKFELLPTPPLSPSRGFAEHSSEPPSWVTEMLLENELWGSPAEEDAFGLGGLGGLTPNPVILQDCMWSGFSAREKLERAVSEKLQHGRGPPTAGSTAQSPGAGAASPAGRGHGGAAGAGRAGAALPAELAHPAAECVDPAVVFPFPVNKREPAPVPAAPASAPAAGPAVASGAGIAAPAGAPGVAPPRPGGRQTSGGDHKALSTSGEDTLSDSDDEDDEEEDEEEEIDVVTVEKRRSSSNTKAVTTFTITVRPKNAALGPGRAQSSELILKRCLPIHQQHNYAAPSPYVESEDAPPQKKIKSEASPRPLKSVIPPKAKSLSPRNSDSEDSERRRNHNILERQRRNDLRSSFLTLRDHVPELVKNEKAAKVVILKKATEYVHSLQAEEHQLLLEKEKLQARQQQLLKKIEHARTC
T1 sequence (P61244 whole entry): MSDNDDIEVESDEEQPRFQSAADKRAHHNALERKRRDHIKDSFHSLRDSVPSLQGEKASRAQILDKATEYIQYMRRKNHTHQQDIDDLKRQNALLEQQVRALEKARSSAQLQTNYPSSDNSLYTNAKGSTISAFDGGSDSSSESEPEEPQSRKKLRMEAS

Structure (SMILES)	microsomal half-life (T1/2) [1] [h]	effect on N-Myc-Max heterodimer interactions (in words) [2]	IC50 [3] [nM]	transcription inhibition activity (in words) ([3]; LNCaP-NMYC, screened at 10 µM and 5 µM)	disruption of DNA binding to (N-)Myc-Max (in words) [4]	inhibition at 25 µM [5] [%]	microsomal half-life (T1/2) ([1]; listed as VPC-70551) [h]	half-life at 1 μM ([1]; mouse, pH 7.4, mouse liver microsomes, read-out: microsomal half-life (T1/2)) [h]	half-life ([6]; male, Balb/c, mouse, plasma, ip, read-out: plasma half-life (T1/2) IP) [h]	Tmax ([6]; male, Balb/c, mouse, plasma, IP, read-out: Tmax IP (converted)) [h]	Cmax ([6]; male, Balb/c, mouse, plasma, IP, read-out: Cmax IP) [ng/mL]	Tmax ([6]; male, Balb/c, mouse, plasma, PO, read-out: Tmax PO (converted)) [h]	Cmax ([6]; male, Balb/c, mouse, plasma, PO, read-out: Cmax PO) [ng/mL]	adverse effects / signs of toxicity in PK animals ([6]; single dose IP or PO)
O=[N+]([O-])c1ccc(Nc2ccccc2-c2ccccc2)c2nonc12 [10074-G5, reference compound]	0.05	significant decrease in the number of interactions; also recorded: the number of interactions is reduced	–	–	–	–	–	–	–	–	–	–	–	–
O=C(NNc1ccc(C(F)(F)F)cc1[N+](=O)[O-])c1cnccn1 [compound 70127]	–	–	1000	strong Myc inhibitory activity	weakly disrupts DNA binding	106	–	–	–	–	–	–	–	–
N#Cc1ccc(NNC(=O)c2ccc(C(F)(F)F)cc2)c(C(F)(F)F)c1 [compound 70551]	–	–	4000	–	–	98	2.33	2.35	5.53	1	6220	8	2600	No obvious adverse effects
